Data taken from patent US20120065126A1, “Pharmaceutical Compositions Containing Antifungal Peptides” (BASF SE, priority 2009, published 2012).

Legend:
Malassezia furfur = experiment: Incubation times between 5 minutes and 1 hour (CFU); assay type: cell-based
Method: The studies described hereinafter were conducted on the Malassezia furfur strain DSM 6170.
For this purpose, the concentrations 100 μM, 200 μM and 500 μM of P18 peptide and of zinc pyrithione as a control substance were used in the experiment. The experiments were conducted as follows:
The growth test was effected as follows: a shake culture containing M472 Pityrosporum medium was inoculated with M. furfur and incubated with shaking at 30° C. and 200 rpm overnight.
A 96-well microtiter plate was filled with 100 μl per well of M472 Pityrosporum medium and inoculated with M. furfur suspension from the overnight culture. The M. furfur suspension was adjusted at the start of the experiment to an optical density, measured at 600 nm, of 0.1.
The following growth was compared: • M. furfur suspension and addition of P18 peptide with a final concentration of 100 μM, plating after 5 minutes, 10 minutes, 20 minutes and 60 minutes • M. furfur suspension and addition of P18 peptide with a final concentration of 200 μM, plating after 5 minutes, 10 minutes, 20 minutes and 60 minutes • M. furfur suspension and addition of P18 peptide with a final concentration of 500 μM, plating after 5 minutes, 10 minutes, 20 minutes and 60 minutes • M. furfur suspension and addition of zinc pyrithione with a final concentration of 100 μM, plating after 5 minutes, 10 minutes, 20 minutes and 60 minutes • M. furfur suspension and addition of zinc pyrithione with a final concentration of 200 μM, plating after 5 minutes, 10 minutes, 20 minutes and 60 minutes • M. furfur suspension and addition of zinc pyrithione with a final concentration of 500 μM, plating after 5 minutes, 10 minutes, 20 minutes and 60 minutes
The microtiter plate was incubated with shaking at 30°.
After the incubation times specified, the colony forming units (CFU) were determined by streaking 50 μl of each of the suspensions and, after incubation over the course of 6 days, counting the colonies. The CFU was determined in order to rule out any influence of the biphasic medium, and also the growth form of M. furfur, on the optical density. The experiments were repeated independently of one another.

[1] = system: Candida albicans (DSM 11948); experiment: Short-term effect (CFU); assay type: cell-based
Method: For this purpose, the procedure was as follows.
YM growth medium (Becton, Dickinson and Company, Sparks, USA) 3 g of yeast extract 3 g of malt extract 5 g of peptone 10 g of dextrose make up to 1 liter, set pH 6.2
The growth test was effected as follows: 5 ml of YM medium were inoculated with C. albicans and incubated at 30° C. and 200 rpm overnight.
1.5 ml reaction vessels were filled with 1 ml each of YM medium and inoculated with the C. albicans suspension of the overnight culture. The resulting C. albicans suspension was set at the start of the experiment to an optical density, measured at 600 nm, of 0.1. The concentration of the peptide solution in water or ZPT solution (zinc pyrithione, >96%, Sigma Aldrich) dissolved in DMSO was 2% (w/w).
The following growth was compared: • C. albicans suspension and addition of P18 peptide with a final concentration in the 1.5 ml reaction vessel of 50 ppm after 5 minutes, 10 minutes, 20 minutes and 60 minutes • C. albicans suspension and addition of P18 peptide with a final concentration in the 1.5 ml reaction vessel of 100 ppm after 5 minutes, 10 minutes, 20 minutes and 60 minutes • C. albicans suspension and addition of P18 peptide with a final concentration in the 1.5 ml reaction vessel of 200 ppm after 5 minutes, 10 minutes, 20 minutes and 60 minutes • C. albicans suspension and addition of P18 peptide with a final concentration in the 1.5 ml reaction vessel of 500 ppm after 5 minutes, 10 minutes, 20 minutes and 60 minutes • C. albicans suspension and addition of P18 peptide with a final concentration in the 1.5 ml reaction vessel of 1000 ppm after 5 minutes, 10 minutes, 20 minutes and 60 minutes • C. albicans suspension and addition of ZPT with a final concentration in the 1.5 ml reaction vessel of 50 ppm after 5 minutes, 10 minutes, 20 minutes and 60 minutes • C. albicans suspension and addition of ZPT with a final concentration in the 1.5 ml reaction vessel of 100 ppm after 5 minutes, 10 minutes, 20 minutes and 60 minutes • C. albicans suspension and addition of ZPT with a final concentration in the 1.5 ml reaction vessel of 200 ppm after 5 minutes, 10 minutes, 20 minutes and 60 minutes • C. albicans suspension and addition of ZPT with a final concentration in the 1.5 ml reaction vessel of 500 ppm after 5 minutes, 10 minutes, 20 minutes and 60 minutes • C. albicans suspension and addition of ZPT with a final concentration in the 1.5 ml reaction vessel of 1000 ppm after 5 minutes, 10 minutes, 20 minutes and 60 minutes
The 1.5 ml reaction vessels were incubated at room temperature.
After the incubation times specified, the colony forming units (CFU) were determined by streaking 1 μl of each of the suspensions diluted in 20 μl of YM medium and, after incubation for 2 days, counting the colonies.

| Substance | Colony forming units after incubation time specified (Malassezia furfur; 100 μM, 5 minutes) [CFU] | Colony forming units after incubation time specified (Malassezia furfur; 100 μM, 10 minutes) [CFU] | Colony forming units after incubation time specified (Malassezia furfur; 100 μM, 20 minutes) [CFU] | Colony forming units after incubation time specified (Malassezia furfur; 100 μM, 60 minutes) [CFU] | Colony forming units after incubation time specified (Malassezia furfur; 200 μM, 5 minutes) [CFU] | Colony forming units after incubation time specified (Malassezia furfur; 200 μM, 10 minutes) [CFU] | Colony forming units after incubation time specified (Malassezia furfur; 200 μM, 20 minutes) [CFU] | Colony forming units after incubation time specified (Malassezia furfur; 200 μM, 60 minutes) [CFU] | Colony forming units after incubation time specified (Malassezia furfur; 500 μM, 5 minutes) [CFU] | Colony forming units after incubation time specified (Malassezia furfur; 500 μM, 10 minutes) [CFU] | Colony forming units after incubation time specified (Malassezia furfur; 500 μM, 20 minutes) [CFU] | Colony forming units after incubation time specified (Malassezia furfur; 500 μM, 60 minutes) [CFU] | Colony forming units after the incubation time specified ([1]; 50 ppm, 5 minutes) [CFU] | Colony forming units after the incubation time specified ([1]; 50 ppm, 10 minutes) [CFU] | Colony forming units after the incubation time specified ([1]; 50 ppm, 20 minutes) [CFU] | Colony forming units after the incubation time specified ([1]; 50 ppm, 60 minutes) [CFU] | Colony forming units after the incubation time specified ([1]; 100 ppm, 5 minutes) [CFU] | Colony forming units after the incubation time specified ([1]; 100 ppm, 10 minutes) [CFU] | Colony forming units after the incubation time specified ([1]; 100 ppm, 20 minutes) [CFU] | Colony forming units after the incubation time specified ([1]; 100 ppm, 60 minutes) [CFU] | other results |
| --- | --- | --- | --- | --- | --- | --- | --- | --- | --- | --- | --- | --- | --- | --- | --- | --- | --- | --- | --- | --- | --- |
| H-KWKLFKKIPKFLHLAKKF-NH2 [P18, H-KWKLFKKIPKFLHLAKKF-NH2] | >1000 | >1000 | 604 | 149 ± 60 | >1000 | >1000 | >1000 | 52 ± 16 | >1000 | 398 ± 290 | 26 ± 6 | 1 ± 1 | 986 ± 280 | 944 ± 209 | 954 ± 14 | 518 ± 82 | 718 ± 116 | 628 ± 112 | 454 ± 127 | 25 ± 0 | Colony forming units after the incubation time specified ([1]; 200 ppm, 5 minutes): 242 ± 122 CFU; Colony forming units after the incubation time specified ([1]; 200 ppm, 10 minutes): 72 ± 2 CFU; Colony forming units after the incubation time specified ([1]; 200 ppm, 20 minutes): 29 ± 2 CFU; Colony forming units after the incubation time specified ([1]; 200 ppm, 60 minutes): 1 ± 1 CFU; Colony forming units after the incubation time specified ([1]; 500 ppm, 5 minutes): 39 ± 1 CFU; Colony forming units after the incubation time specified ([1]; 500 ppm, 10 minutes): 5 ± 6 CFU; Colony forming units after the incubation time specified ([1]; 500 ppm, 20 minutes): 1 ± 1 CFU; Colony forming units after the incubation time specified ([1]; 500 ppm, 60 minutes): 0 ± 0 CFU; Colony forming units after the incubation time specified ([1]; 1000 ppm, 5 minutes): 10 ± 2 CFU; Colony forming units after the incubation time specified ([1]; 1000 ppm, 10 minutes): 1 ± 2 CFU; Colony forming units after the incubation time specified ([1]; 1000 ppm, 20 minutes): 0 ± 0 CFU; Colony forming units after the incubation time specified ([1]; 1000 ppm, 60 minutes): 0 ± 0 CFU |
| zinc pyrithione [ZPT] | >1000 | >1000 | >1000 | >1000 | >1000 | >1000 | >1000 | >1000 | >1000 | >1000 | >1000 | >1000 | 830 ± 190 | 1096 ± 51 | 986 ± 20 | 982 ± 93 | 809 ± 100 | 1048 ± 74 | 806 ± 105 | 762 ± 212 | Inhibition in words ([1]; 50-1000 ppm, up to 60 minutes): no significant inhibition; Colony forming units after the incubation time specified ([1]; 200 ppm, 5 minutes): 676 ± 204 CFU; Colony forming units after the incubation time specified ([1]; 200 ppm, 10 minutes): 906 ± 331 CFU; Colony forming units after the incubation time specified ([1]; 200 ppm, 20 minutes): 882 ± 190 CFU; Colony forming units after the incubation time specified ([1]; 200 ppm, 60 minutes): 711 ± 125 CFU; Colony forming units after the incubation time specified ([1]; 500 ppm, 5 minutes): 863 ± 35 CFU; Colony forming units after the incubation time specified ([1]; 500 ppm, 10 minutes): 832 ± 192 CFU; Colony forming units after the incubation time specified ([1]; 500 ppm, 20 minutes): 710 ± 71 CFU; Colony forming units after the incubation time specified ([1]; 500 ppm, 60 minutes): 617 ± 134 CFU; Colony forming units after the incubation time specified ([1]; 1000 ppm, 5 minutes): 806 ± 20 CFU; Colony forming units after the incubation time specified ([1]; 1000 ppm, 10 minutes): 700 ± 153 CFU; Colony forming units after the incubation time specified ([1]; 1000 ppm, 20 minutes): 550 ± 88 CFU; Colony forming units after the incubation time specified ([1]; 1000 ppm, 60 minutes): 482 ± 69 CFU |
